Reference: US20090082455A1, “THERAPEUTIC AGENT FOR OPHTHALMIC DISEASE” (ONO PHARMACEUTICAL CO. LTED, priority 2005, published 2009)
Entries after “also recorded” stand apart in the source; their conditions may differ. Structures can show the parent of a compound that is named as a salt. Where two headings read alike, the source gives them in different places.

Assays:
Assay type in all cases: in vivo
S100-positive cells = experiment: Rat retinal ischemia model: S100-positive cell number and area (S100 staining); settings: for Effect on increases in S100 positive areas / Effect on changes in number of S100-positive cells: result in words; for Effect on changes in number of S100-positive cells: A2 and A4 points; for inhibition at 10 mg/kg: Rattus norvegicus, S100, iv; for Area of S100 positive cells, A1 (mean): point A1; for Area of S100 positive cells, A2 (mean) / Number of S100 positive cells, A2 (mean): point A2; for Area of S100 positive cells, A3 (mean): point A3; for Area of S100 positive cells, A4 (mean) / Number of S100 positive cells, A4 (mean): point A4 (optic nerve)
Description: (§1) A 27 G injection needle (4) was attached to an end of the tube. A part about 20 cm below the bottom end of the perfusion line was attached to a supporting bar and the part was lightly fixed by a stand.
(§2) A rat (Crj:CD(SD) IGS, from CHARLES RIVER LABORATORIES JAPAN, Inc.) was anesthetized with pentobarbital sodium (40 mg/kg, i.p.) and the pupil of the eye to be operated were preliminarily dilated by using a mydriasis agent (MYDRIN P; manufactured by SANTEN PHARMACEUTICAL Co., Ltd.).
(§3) Before the surgical operation, the bottle (1) was held up so that the water surface in the perfusion bottle was located on 163.5 cm above the rat eyes in the state of closing the perfusion line (loading an intraocular pressure of […]). After opening the top end, the perfusion line was connected to a differential pressure transducer and the height was adjusted to give a predetermined pressure, followed by closing the line. With confirming the mydriasis under a stereoscopic microscope, the stopper of the perfusion line was loosened and the solution was dropped little by little from the needle point. As the cornea was tightly sandwiched between tweezers and an injection needle (4), the injection needle (4) was punctured into the anterior chamber (5) from the nasal side. Next, the perfusion line was opened to load pressure in the anterior chamber (5). After loading the ischemia for 60 minutes, the injection needle (4) was taken off and the animals were awaken out of the anesthesia with keeping the body temperature at 37° C. In the sham-ischemia group, an injection needle was punctured into the anterior chamber from the nasal side in the state of closing the perfusion line, followed by taking off after 60 minutes.
(§4) (2R)-2-propyloctanoic acid was intravenously administered via the tail vein in a dose of 10 mg/mL/kg once a day for 7 days from the day of the ischemic operation. Dizocilpine maleate ((+)-MK-801 maleate, hereinafter referred to simply as “MK-801”) which is a positive control compound was intravenously administered via the tail vein in a dose of 10 mg/mL/kg once alone 30 minutes before the ischemic operation.
(§5) A rat was anesthetized with pentobarbital sodium (40 mg/kg, i.p.) and fixed at the dorsal position. After incising the subcostal skin, with grasping the xiphoid process with tweezers or a kocher, the upper end of the anterior abdominal muscle was horizontally incised with scissors. Next, after reversing the chest wall, the xiphoid process was grasped with a kocher or the chest wall was grasped with a kocher to expose the heart. The heart was grasped with tweezers and the left ventricular was incised with scissors. Then, the front end of a disposable oral probe for mouse connected to a blood transfusion tube was introduced from the left ventricular to the aorta and the end of the oral probe was grasped with a clamp. The atrial auricula was incised and perfused with physiological saline containing heparin (10 U/mL). The blood transfusion tube and the disposable oral probe for mouse were replaced with fresh ones and perfusion with a 10% neutral formalin buffer was conducted in the same manner as described above for fixation. After fixing, both eyes were taken out, stored in a sample bottle filled with the 10% neutral formalin buffer and subjected to the following evaluation.
(§6) An ischemic eye was excised, embedded and sliced. Next, hematoxylin-eosin staining, GFAP (glial fibrillary acidic protein) staining and S100 staining by the methods as shown in the following (5-2) to (5-4) were carried out.
An anti-S 100 rabbit antibody (cat No. Z0311, DAKO) was used. […]

GFAP-positive cells = experiment: Rat retinal ischemia model: GFAP-positive cell number and area (GFAP staining); settings: for Effect on changes in number of GFAP-positive cells / Effect on increases in GFAP positive areas: result in words; for inhibition at 10 mg/kg: Rattus norvegicus, iv; for Number of GFAP positive cells, A2 (mean): point A2 (optic nerve papilla); for Area of GFAP positive cells, A2 (mean): point A2; for Area of GFAP positive cells, A3 (mean) / Number of GFAP positive cells, A3 (mean): point A3; for Area of GFAP positive cells, A4 (mean): point A4 (optic nerve)
Description: as §1, §2, §3, §4, §5, §6
An anti-GFAP rabbit antibody (cat No. Z0334, DAKO) was used. […]

[1] = Single intravenous administration toxicity test in dogs; settings: 100 mg/kg, single i.v.
Excerpt: Since toxicity of (2R)-2-propyloctanoic acid, a salt thereof or prodrug thereof is low, it can be considered to be sufficiently safe for medicinal uses.

GCL cells = experiment: Rat retinal ischemia model: number of GCL cells (HE staining); settings: 10 mg/kg i.v.; for Effect on decrease in number of optic nerve cells / optic nerve cell death caused by ischemia: result in words; for Number of GCL cells, A1 (mean): retina point A1, 2 mm from optic nerve papilla; for Number of GCL cells, A1 (mean) / Number of GCL cells, A3 (mean) / Number of GCL cells, A1 + A3 (mean): 60 min ischemia; for Number of GCL cells, A3 (mean): retina point A3, 2 mm from optic nerve papilla; for Number of GCL cells, A1 + A3 (mean): sum of A1 and A3; for Inhibitory rate of decrease in number of optic nerve cells, A1+A3: sum of A1 and A3 data
Description: as §1, §2, §3, §4, §5, §6
(1) deparaffinization; (2) water washing; (3) nuclear staining with hematoxylin for 20 minutes; (4) water washing and color development for 10 minutes; (5) eosin for 3 minutes; and (6) dehydration→penetration→enclosure.
Using HE-stained samples thus obtained, GCL cells at two points (A1, A3; refer to FIG. 2) on the retina which are 2 mm apart from the optic nerve papilla (A2) were counted (cells/mm^2).

Structure (SMILES) | Effect on increases in S100 positive areas (S100-positive cells; 10 mg/kg i.v.) | Effect on changes in number of S100-positive cells (S100-positive cells; 10 mg/kg i.v.) | Area of S100 positive cells, A1 (mean) (S100-positive cells; 10 mg/kg i.v.) | Area of S100 positive cells, A2 (mean) (S100-positive cells; 10 mg/kg i.v.) | Number of S100 positive cells, A2 (mean) (S100-positive cells; 10 mg/kg i.v.) | Area of S100 positive cells, A3 (mean) (S100-positive cells; 10 mg/kg i.v.) | Area of S100 positive cells, A4 (mean) (S100-positive cells; 10 mg/kg i.v.) | Number of S100 positive cells, A4 (mean) (S100-positive cells; 10 mg/kg i.v.) | Effect on changes in number of GFAP-positive cells (GFAP-positive cells; 10 mg/kg i.v.) | Effect on increases in GFAP positive areas (GFAP-positive cells; 10 mg/kg i.v.) | Area of GFAP positive cells, A1 (mean) (GFAP-positive cells; point A1, 10 mg/kg i.v.) | Number of GFAP positive cells, A1 (mean) (GFAP-positive cells; point A1, 10 mg/kg i.v.) | Number of GFAP positive cells, A2 (mean) (GFAP-positive cells; 10 mg/kg i.v.) | Area of GFAP positive cells, A2 (mean) (GFAP-positive cells; 10 mg/kg i.v.) | Area of GFAP positive cells, A3 (mean) (GFAP-positive cells; 10 mg/kg i.v.) | Number of GFAP positive cells, A3 (mean) (GFAP-positive cells; 10 mg/kg i.v.) | Area of GFAP positive cells, A4 (mean) (GFAP-positive cells; 10 mg/kg i.v.) | Effect on decrease in number of optic nerve cells / optic nerve cell death caused by ischemia (GCL cells) | Number of GCL cells, A1 (mean) (GCL cells) | Number of GCL cells, A3 (mean) (GCL cells) | other results
CCCCCC[C@@H](CCC)C(=O)O [(2R)-2-propyloctanoic acid] | showed inhibitory effects | showed an inhibitory effect | 1.9 % AREA | 3.5 % AREA | 295.4 cells/mm^2 | 1.6 % AREA | 3.3 % AREA | 307.7 cells/mm^2 | showed inhibitory effects | showed inhibitory effects | 4.2 % AREA | 52.6 cells/mm^2 | 317.9 cells/mm^2 | 10.1 % AREA | 4.2 % AREA | 52.9 cells/mm^2 | 16.8 % AREA | showed inhibitory effects; also recorded: remarkable effect of inhibiting optic nerve cell death | 116.4 cells/mm^2 | 129.9 cells/mm^2 | inhibition at 10 mg/kg (S100-positive cells; point A4, 10 mg/kg i.v., read-out: Inhibitory rate of increase in S100 positive area at point A4): 93.9%; inhibition at 10 mg/kg (S100-positive cells; point A4, 10 mg/kg i.v., read-out: Inhibitory rate of increase in number of S100-positive cells at point A4): 31.2%; inhibition at 10 mg/kg (GFAP-positive cells; point A1, 10 mg/kg i.v., read-out: Inhibitory rate of change in number of GFAP-positive cells at point A1): 69%; inhibition at 10 mg/kg (GFAP-positive cells; point A1 as printed, 10 mg/kg i.v., read-out: Inhibitory rate of increase in GFAP positive area at the point A1): 87.8%; Lethality after single intravenous administration [1]: no fatal case was observed; Number of GCL cells, A1 + A3 (mean) (GCL cells): 246.3 cells/mm^2; Inhibitory rate of decrease in number of optic nerve cells, A1+A3 (GCL cells): 52.1%
C[C@]12N[C@H](Cc3ccccc31)c1ccccc12 [MK-801, Dizocilpine maleate, reference compound] | showed inhibitory effects | showed an inhibitory effect exclusively on the increase in the number of S100-positive cells at the A2 point | 1.9 % AREA | 3.8 % AREA | 212.9 cells/mm^2 | 2.1 % AREA | 6.8 % AREA | 600.2 cells/mm^2 | showed inhibitory effects | showed inhibitory effects | 3.4 % AREA | 47.8 cells/mm^2 | 275.3 cells/mm^2 | 11.0 % AREA | 3.6 % AREA | 56.8 cells/mm^2 | 17.9 % AREA | showed inhibitory effects | 125.1 cells/mm^2 | 134.9 cells/mm^2 | inhibition at 10 mg/kg (S100-positive cells; read-out: Inhibitory rate of increase in S100 positive area at point A4): 51.2%; inhibition at 10 mg/kg (GFAP-positive cells; read-out: Inhibitory rate of change in number of GFAP-positive cells at point A1): 42.9%; inhibition at 10 mg/kg (GFAP-positive cells; read-out: Inhibitory rate of increase in GFAP positive area at the point A1): 78.3%; Number of GCL cells, A1 + A3 (mean) (GCL cells): 260.0 cells/mm^2; Inhibitory rate of decrease in number of optic nerve cells, A1+A3 (GCL cells): 59.5%
